{
  "source": "patent US20140010939A1",
  "about": "“Sweetness Enhancers, Sweetener Compositions, Methods of Making the Same and Consumables Containing the Same” (Nutrinova Nutrition Specialties & Food Ingredients GmbH, priority 2011, published 2014)",
  "target": "T1, heterodimeric hT1R2/hT1R3 sweet taste receptor (Homo sapiens, UniProt Q7RTX0+Q8TE23)",
  "T1 construct": "expressed in transfected cells",
  "T1 sequence (Q8TE23 20-839)": "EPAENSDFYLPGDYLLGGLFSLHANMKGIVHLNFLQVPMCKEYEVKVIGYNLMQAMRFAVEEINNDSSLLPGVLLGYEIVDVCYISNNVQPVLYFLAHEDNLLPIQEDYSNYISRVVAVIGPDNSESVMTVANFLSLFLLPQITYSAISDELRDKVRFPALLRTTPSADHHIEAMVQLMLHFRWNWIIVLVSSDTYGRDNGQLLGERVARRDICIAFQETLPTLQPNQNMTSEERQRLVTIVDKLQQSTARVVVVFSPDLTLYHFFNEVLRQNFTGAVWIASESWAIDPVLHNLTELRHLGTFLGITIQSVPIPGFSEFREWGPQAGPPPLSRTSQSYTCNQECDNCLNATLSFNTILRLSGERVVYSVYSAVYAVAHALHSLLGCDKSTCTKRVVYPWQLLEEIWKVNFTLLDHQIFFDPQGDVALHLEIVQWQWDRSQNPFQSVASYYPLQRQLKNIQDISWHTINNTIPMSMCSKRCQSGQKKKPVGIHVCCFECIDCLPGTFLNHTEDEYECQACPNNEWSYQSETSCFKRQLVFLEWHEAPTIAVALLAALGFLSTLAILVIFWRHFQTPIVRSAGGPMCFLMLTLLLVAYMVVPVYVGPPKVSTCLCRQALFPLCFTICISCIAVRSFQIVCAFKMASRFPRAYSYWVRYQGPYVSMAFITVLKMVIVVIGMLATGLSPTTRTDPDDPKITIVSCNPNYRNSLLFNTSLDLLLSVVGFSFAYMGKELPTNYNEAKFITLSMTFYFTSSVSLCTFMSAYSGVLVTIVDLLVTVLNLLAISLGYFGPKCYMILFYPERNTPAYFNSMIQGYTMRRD",
  "T1 sequence (Q7RTX0 21-852)": "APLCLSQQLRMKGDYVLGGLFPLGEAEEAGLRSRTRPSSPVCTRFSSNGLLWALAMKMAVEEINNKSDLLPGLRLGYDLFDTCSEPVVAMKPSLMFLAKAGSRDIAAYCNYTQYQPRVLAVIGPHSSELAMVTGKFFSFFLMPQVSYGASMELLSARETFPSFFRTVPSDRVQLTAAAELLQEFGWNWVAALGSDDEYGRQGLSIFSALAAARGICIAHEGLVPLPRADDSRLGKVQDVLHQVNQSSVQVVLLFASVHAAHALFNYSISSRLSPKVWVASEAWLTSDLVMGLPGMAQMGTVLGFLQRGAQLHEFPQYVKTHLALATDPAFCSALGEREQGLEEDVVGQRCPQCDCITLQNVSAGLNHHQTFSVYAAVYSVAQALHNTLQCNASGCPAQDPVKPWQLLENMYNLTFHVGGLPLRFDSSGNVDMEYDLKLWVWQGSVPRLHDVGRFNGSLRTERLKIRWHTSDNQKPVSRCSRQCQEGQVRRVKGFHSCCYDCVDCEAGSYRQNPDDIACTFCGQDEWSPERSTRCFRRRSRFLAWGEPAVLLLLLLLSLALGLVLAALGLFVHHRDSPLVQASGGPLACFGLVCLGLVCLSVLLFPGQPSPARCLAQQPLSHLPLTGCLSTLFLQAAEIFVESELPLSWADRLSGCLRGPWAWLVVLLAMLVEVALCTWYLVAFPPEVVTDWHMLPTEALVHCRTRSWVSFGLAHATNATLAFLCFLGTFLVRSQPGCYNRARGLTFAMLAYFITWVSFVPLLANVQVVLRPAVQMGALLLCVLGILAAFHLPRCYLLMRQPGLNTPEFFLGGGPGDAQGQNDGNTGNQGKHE",
  "test": "Recombinant human taste receptor T1R2/T1R3 dependent cell based assay (calcium, Fluo4-AM fluorescence)",
  "method": "For measurement of human T1R2/T1R3 taste receptor dependent activity a control cell line without sweet receptor based on HEK 293 and a cell line expressing the sweet receptor hT1R2/hT1R3 based on HEK 293, respectively, are seeded into assay plates and labelled with the calcium sensitive fluorescence dye Fluo4-AM in a culture medium. The potential modulators, e.g. the test compound, are added to the control cell line and to the cell line expressing the sweet receptor hT1R2/hT1R3, respectively.\nA stable cell line based on HEK293 was termed HEKα15#17 served as control for functional Ga-protein and a stable cell line HEKGα15#17R2R3b#8 C6 served as cell line expressing the sweet receptor hT1R2/hT1R3 based on HEKGα15#17.\nThe cells were cultured in DMEM/HG and 10% FCS Gold, 4 mM L-Glutamin, 1,3 mg/ml Geneticin (HEKGα15#17) or the same medium additionally containing 6 μg/ml Blasticidin (HEKGα15#17R2R3b#8 C6). The medium for the assay was DMEM/HG (high glucose, 4.5 g/l glucose, Life Technologies) and 10% FCS Gold, 4 mM L-Glutamin (HEKGα15#17) or DMEM/LG (low glucose, 1 g/l glucose; Life Technologies) and 10% FCS Gold (HEKGα15#17R2R3b#8C6), respectively.\nIn order to evaluate the sweet receptor modulating activity of the compound of formula (Ia), compound of formula (Ia) was added to the cultures in a concentration of 25 μM in a volume of 50 μl. Controls were KH-buffer (Krebs HEPES-buffer: 118 mM NaCl, 4.7 mM KCl, 1.2 mM MgSO4, 1.2 mM KH2PO4, 4.2 mM NaHCO3, 1.3 mM CaCl2, 10 mM Hepes, pH 7.4) either without or with sweetness enhancer.\nFurther controls for function of G-protein and receptor were isoproterenol (1 μM, Sigma Aldrich), ionomycin (1 μM, Calbiochem) and ATP (1 μM, Applichem). […]\nOn day 2 the cells were seeded into assay plates at a density of 25,000 cells/well. Assay plates for fluorescence measurement (black clear bottom 96-cavity plates, Greiner Bio-One) were coated with poly-D-lysine. […]",
  "note": "Entries after “also recorded” stand apart in the source; their conditions may differ.",
  "data": [
    {"smiles": "CC(=O)N(O)CCCCCNC(=O)C(O)(CC(=O)O)CC(=O)NCCCN(O)C(C)=O", "note": "(stereo not drawn) [compound of formula (Ia)]", "values": [
      {"measurement": "Enhancement of the activity of fructose (sweetness enhancer activity in vitro)", "setting": "25 μM with fructose (20 mM) versus KH buffer/fructose", "result": "fructose enhancer; also recorded: enhances the activity of fructose"},
      {"measurement": "Time response in the cell assay", "setting": "measured over a period of 78 seconds, FIG. 2 / inserted graph", "result": "selective stimulation of receptor carrying cells"},
      {"measurement": "Fluo4-AM fluorescence increase (cellular activation)", "setting": "primary screening, receptor carrying cells only, FIG. 1 sixth bar", "result": "strong cellular activation"}
    ]}
  ]
}
